Results on four compounds are retold here after PMC3297363 (Journal of Medicinal Chemistry, 2012).

Assay [1] relates to 3D7 strain of P. falciparum. In words: In vitro antimalarial activity versus 3D7 P. falciparum. The assay is classed as cell-based, Plasmodium falciparum.
In assay [2] the test system is TM90C2B strain of P. falciparum. Put plainly: In vitro antimalarial activity versus atovaquone resistant TM90C2B. The conditions noted are these: Plasmodium falciparum, read-out: IC50 in TM90C2B strain. The assay is classed as cell-based.
The target of assay [3] is T1, PfNDH2 (Plasmodium falciparum, UniProt Q8I302).
T1 sequence (Q8I302 1-533): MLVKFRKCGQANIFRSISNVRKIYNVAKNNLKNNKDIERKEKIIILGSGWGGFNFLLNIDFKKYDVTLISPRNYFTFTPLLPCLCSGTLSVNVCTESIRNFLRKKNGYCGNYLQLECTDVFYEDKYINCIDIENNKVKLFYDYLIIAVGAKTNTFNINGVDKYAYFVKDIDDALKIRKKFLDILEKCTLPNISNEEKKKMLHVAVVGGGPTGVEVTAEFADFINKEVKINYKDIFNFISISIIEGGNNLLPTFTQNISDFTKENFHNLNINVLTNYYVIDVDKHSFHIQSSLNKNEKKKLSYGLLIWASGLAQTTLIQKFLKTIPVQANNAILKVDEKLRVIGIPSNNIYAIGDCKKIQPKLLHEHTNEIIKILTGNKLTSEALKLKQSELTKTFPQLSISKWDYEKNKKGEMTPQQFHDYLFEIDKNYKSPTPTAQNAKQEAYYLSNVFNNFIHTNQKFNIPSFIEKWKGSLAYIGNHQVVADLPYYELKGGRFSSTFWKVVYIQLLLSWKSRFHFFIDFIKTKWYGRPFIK
The assay is classed as biochemical. Particulars: PfNDH2 enzyme.

Structures are written as SMILES. Like-named read-outs stand apart in the source and are kept apart here.

On to `COc1cccc2[nH]c(-c3ccc(Cc4ccc(OC(F)(F)F)cc4)cc3)c(C)c(=O)c12` [6m], for which the IC50 – broadly, the concentration that gives 50% inhibition – in assay [1] (Plasmodium falciparum, 3D7, read-out: IC50 (nM) 3D7 ± SD, 3D7 strain of P. falciparum, in vitro) is above 350 nM.
With `O=C1C(O)=C([C@H]2CC[C@H](c3ccc(Cl)cc3)CC2)C(=O)c2ccccc21` [atovaquone], the IC50 in assay [2] was determined as 12000 nM.
Consider `O=c1c(-c2ccc(Oc3ccc(OC(F)(F)F)cc3)cc2)c(CO)[nH]c2ccccc12` [compound 25], for which the “IC50 (nM) PfNDH2” value in assay [3] is on record as “shows no PfNDH2”.
For `COc1ccc(Cc2ccc(-c3[nH]c4ccccc4c(=O)c3C)cc2)cc1` [6g], in assay [1] (read-out: IC50 (nM) 3D7 ± SD, 3D7 strain of P. falciparum, in vitro), the IC50 was 37 nM.
